# Patent publication US20190083482A1, “PRMT5 INHIBITORS AND USES THEREOF” (Epizyme, Inc., priority 2017, published 2019)
# What was measured:
# [1] = tested on: symmetric di-methyl arginine in Z-138 cells; assay: Z-138 Methylation Assay (In Cell Western for symmetric di-methyl arginine); format: cell-based; settings: Homo sapiens, 96 hours incubation, read-out: ICW EC50
# Source text: Z-138 suspension cells were purchased from ATCC (American Type Culture Collection, Manassas, Va.). RPMI/Glutamax medium, penicillin-streptomycin, heat inactivated fetal bovine serum, and D-PBS were purchased from Life Technologies, Grand Island, N.Y., USA. Odyssey blocking buffer, 800 CW goat anti-rabbit IgG (H+L) antibody, and Licor Odyssey infrared scanner were purchased from Licor Biosciences, Lincoln, Nebr., USA. Symmetric di-methyl arginine antibody was purchased from EMD Millipore, Billerica, Mass., USA. 16% Paraformaldehyde was purchased from Electron Microscopy Sciences, Hatfield, Pa., USA.
# Z-138 suspension cells were maintained in growth medium (RPMI 1640 supplemented with 10% v/v heat inactivated fetal bovine serum and 100 units/mL penicillin-streptomycin) and cultured at 37° C. under 5% CO2.
# Cell Treatment, in Cell Western (ICW) for Detection of Symmetric Di-Methyl Arginine and DNA Content.
# Z-138 cells were seeded in assay medium at a concentration of 50,000 cells per mL to a 384-well cell culture plate with 50 μL per well. Compound (100 nL) from 384 well source plates was added directly to 384 well cell plate. Plates were incubated at 37° C., 5% CO2 for 96 hours. After four days of incubation, 40 μL of cells from incubated plates were added to poly-D-lysine coated 384 well culture plates (BD Biosciences 356697). Plates were incubated at room temperature for 30 minutes then incubated at 37° C., 5% CO2 for 5 hours. After the incubation, 40 μL per well of 8% paraformaldehyde in PBS (16% paraformaldahyde was diluted to 8% in PBS) was added to each plate and incubated for 30 minutes. Plates were transferred to a Biotek 405 plate washer and washed 5 times with 100 μL per well of wash buffer (1×PBS with 0.1% Triton X-100 (v/v)). Next 30 μL per well of Odyssey blocking buffer were added to each plate and incubated 1 hour at room temperature. Blocking buffer was removed and 20 μL per well of primary antibody was added (symmetric di-methyl arginine diluted 1:100 in Odyssey buffer with 0.1% Tween 20 (v/v)) and plates were incubated overnight (16 hours) at 4° C. Plates were washed 5 times with 100 μL per well of wash buffer. Next 20 μL per well of secondary antibody was added (1:200 800 CW goat anti-rabbit IgG (H+L) antibody, 1:1000 DRAQ5 (Biostatus limited) in Odyssey buffer with 0.1% Tween 20 (v/v)) and incubated for 1 hour at room temperature. The plates were washed 5 times with 100 μL per well wash buffer then 1 time with 100 μL per well of water. Plates were allowed to dry at room temperature then imaged on the Licor Odyssey machine which measures integrated intensity at 700 nm and 800 nm wavelengths. Both 700 and 800 channels were scanned.
# First, the ratio for each well was determined by:
# Each plate included fourteen control wells of DMSO only treatment (minimum inhibition) as well as fourteen control wells for maximum inhibition treated with 3 μM of a reference compound (Background wells). The average of the ratio values for each control type was calculated and used to determine the percent inhibition for each test well in the plate. Reference compound was serially diluted three-fold in DMSO for a total of nine test concentrations, beginning at 3 μM. Percent inhibition was determined and IC50 curves were generated using triplicate wells per concentration of compound.
# Z-138 cell line = assay: Z-138 Proliferation Assay (Cell Titer Glo); format: cell-based; settings: Homo sapiens, 120 h; Z-138 cells, 5 days incubation, top concentration 20 μM
# Source text: Z-138 Proliferation Assay
# Z-138 suspension cells were purchased from ATCC (American Type Culture Collection, Manassas, Va.). RPMI/Glutamax medium, penicillin-streptomycin, heat inactivated fetal bovine serum were purchased from Life Technologies, Grand Island, N.Y., USA. V-bottom polypropylene 384-well plates were purchased from Greiner Bio-One, Monroe, N.C., USA. Cell culture 384-well white opaque plates were purchased from Perkin Elmer, Waltham, Mass., USA. Cell-Titer Glo® was purchased from Promega Corporation, Madison, Wis., USA. SpectraMax M5 plate reader was purchased from Molecular Devices LLC, Sunnyvale, Calif., USA.
# Z-138 suspension cells were maintained in growth medium (RPMI 1640 supplemented with 10% v/v heat inactivated fetal bovine serum and cultured at 37° C. under 5% CO2. Under assay conditions, cells were incubated in assay medium (RPMI 1640 supplemented with 10% v/v heat inactivated fetal bovine serum and 100 units/mL penicillin-streptomycin) at 37° C. under 5% CO2.
# For the assessment of the effect of compounds on the proliferation of the Z-138 cell line, exponentially growing cells were plated in 384-well white opaque plates at a density of 10,000 cells/ml in a final volume of 50 μl of assay medium. A compound source plate was prepared by performing triplicate nine-point 3-fold serial dilutions in DMSO, beginning at 10 mM (final top concentration of compound in the assay was 20 μM and the DMSO was 0.2%). A 100 nL aliquot from the compound stock plate was added to its respective well in the cell plate. […] After addition of compounds, assay plates were incubated for 5 days at 37° C., 5% CO2, relative humidity >90%. Cell viability was measured by quantitation of ATP present in the cell cultures, adding 35 μl of Cell Titer Glo® reagent to the cell plates. Luminescence was read in the SpectraMax M5 microplate reader. The concentration of compound inhibiting cell viability by 50% was determined using a 4-parametric fit of the normalized dose response curves.
# PRMT5/MEP50 = molecular target: T1, PRMT5/MEP50 (Homo sapiens, UniProt O14744); assay: PRMT5 Biochemical Assay (PRMT5/MEP50 enzyme assay on peptide substrate, 3H-SAM Flashplate); settings: PRMT5/MEP50 4 nM, 3H-SAM 75 nM, peptide 40 nM
# T1 construct: Flag-PRMT5; made in house; host or cells: Spodoptera frugiperda (SF9) insect cells, baculovirus
# T1 sequence (O14744 with tags, fused parts or gaps): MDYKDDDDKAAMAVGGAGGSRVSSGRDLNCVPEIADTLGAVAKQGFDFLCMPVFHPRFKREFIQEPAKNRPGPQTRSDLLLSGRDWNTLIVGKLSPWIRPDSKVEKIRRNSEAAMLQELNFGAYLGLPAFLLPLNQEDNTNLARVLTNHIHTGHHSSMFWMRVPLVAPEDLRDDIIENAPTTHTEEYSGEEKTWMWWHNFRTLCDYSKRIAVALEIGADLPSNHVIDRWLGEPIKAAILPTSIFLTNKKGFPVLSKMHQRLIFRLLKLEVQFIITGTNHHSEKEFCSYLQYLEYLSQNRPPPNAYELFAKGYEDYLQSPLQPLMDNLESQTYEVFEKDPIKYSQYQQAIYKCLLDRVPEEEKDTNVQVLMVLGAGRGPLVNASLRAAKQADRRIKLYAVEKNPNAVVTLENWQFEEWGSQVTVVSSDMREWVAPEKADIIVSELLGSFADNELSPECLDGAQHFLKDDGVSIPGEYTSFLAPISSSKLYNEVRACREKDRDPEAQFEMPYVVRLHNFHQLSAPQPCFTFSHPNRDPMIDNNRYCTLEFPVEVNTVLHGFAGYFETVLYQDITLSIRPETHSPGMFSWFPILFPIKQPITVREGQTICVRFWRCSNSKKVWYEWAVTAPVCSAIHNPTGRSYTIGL
# T1 sequence (Q9BQA1 with tags, fused parts or gaps partner limits assumed): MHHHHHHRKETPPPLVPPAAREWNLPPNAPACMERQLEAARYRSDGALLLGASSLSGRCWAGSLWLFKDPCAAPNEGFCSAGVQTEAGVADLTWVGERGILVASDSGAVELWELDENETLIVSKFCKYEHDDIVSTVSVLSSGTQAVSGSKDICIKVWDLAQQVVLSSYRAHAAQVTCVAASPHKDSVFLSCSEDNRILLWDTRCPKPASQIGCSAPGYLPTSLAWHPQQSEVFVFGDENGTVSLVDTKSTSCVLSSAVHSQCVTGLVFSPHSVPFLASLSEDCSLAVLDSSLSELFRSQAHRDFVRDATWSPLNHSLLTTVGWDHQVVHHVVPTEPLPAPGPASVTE
# Source text: S-adenosylmethionine (SAM), S-adenosylhomocysteine (SAH), bicine, KCl, Tween20, dimethylsulfoxide (DMSO), bovine skin gelatin (BSG), and Tris(2-carboxyethyl)phosphine hydrochloride solution (TCEP) were purchased from Sigma-Aldrich at the highest level of purity possible. ^3H-SAM was purchase from American Radiolabeled Chemicals with a specific activity of 80 C1/mmol. 384-well streptavidin Flashplates were purchased from PerkinElmer.
# Peptide representative of human histone H4 residues 1-15 was synthesized with a C-terminal linker-affinity tag motif and a C-terminal amide cap by 21st Century Biochemicals.
# The amplified genes were sublconed into pENTR/D/TEV (Life Technologies) and subsequently transferred by Gateway™ attL×attR recombination to pDEST8 baculvirus expression vector (Life Technologies).
# Protein over-expression was accomplished by infecting exponentially growing Spodoptera frugiperda (SF9) cell culture at 1.2×10^6 cell/ml with a 5000 fold dilution of BIIC stock. Infections were carried out at 27° C. for 72 hours, harvested by centrifugation, and stored at −80° C. for purification.
# Flag-PRMT5/6His-MeP50 was eluted with 300 mM Imidazole in the same buffer.
# General Procedure for PRMT5/MEP50 Enzyme Assays on Peptide Substrates.
# The assays were all performed in a buffer consisting of 20 mM Bicine (pH=7.6), 1 mM TCEP, 0.005% BSG, and 0.002% Tween20, prepared on the day of use. […] DMSO (1 ul) was added to Columns 11, 12, 23, 24, rows A-H for the maximum signal control and 1 ul of SAH, a known product and inhibitor of PRMT5/MEP50, was added to columns 11, 12, 23, 24, rows I-P for the minimum signal control. A cocktail (40 ul) containing the PRMT5/MEP50 enzyme and the peptide was added by Multidrop Combi (Thermo-Fisher). The compounds were allowed to incubate with PRMT5/MEP50 for 30 min at 25 degrees Celsius, then a cocktail (10 ul) containing ^3H-SAM was added to initiate the reaction (final volume=51 ul). […] The assays were stopped by the addition of non-radioactive SAM (10 ul) to a final concentration of 600 uM, which dilutes the ^3H-SAM to a level where its incorporation into the peptide substrate is no longer detectable. 50 ul of the reaction in the 384-well polypropylene plate was then transferred to a 384-well Flashplate and the biotinylated peptides were allowed to bind to the streptavidin surface for at least 1 hour before being washed three times with 0.1% Tween20 in a Biotek ELx405 plate washer. The plates were then read in a PerkinElmer TopCount plate reader to measure the quantity of ^3H-labeled peptide bound to the Flashplate surface, measured as disintegrations per minute (dpm) or alternatively, referred to as counts per minute (cpm).
# Where dpm=disintegrations per minute, cmpd=signal in assay well, and min and max are the respective minimum and maximum signal controls.
# Where top and bottom are the normally allowed to float, but may be fixed at 100 or 0 respectively in a 3-parameter fit. The Hill Coefficient normally allowed to float but may also be fixed at 1 in a 3-parameter fit. Y is the % inhibition and X is the compound concentration.
EC50 [1],IC50 (PRMT5/MEP50),SMILES,EC50 (Z-138 cell line)
0.101 to 1 µM,,O=C(NCC(O)CN1CCc2ccccc2C1)C(O)c1ccccc1 (stereo not shown) [Compound 165],> 20 µM
,,"Cn1ncc2ccc(OCC(=O)NCC(O)CN3CCc4ccccc4C3)cc21 (stereo not shown) [Compound 23, N-(3-(3,4-dihydroisoquinolin-2(1H)-yl)-2-hydroxypropyl)-2-((1-methyl-1H-indazol-6-yl)oxy)acetamide]",1 to 10 µM
0.101 to 1 µM,,O=C(Cc1c[nH]c2ccccc12)NC[C@H](O)CN1CCc2ccccc2C1 [Compound 182],
< 0.1 µM,< 0.1 µM,Cn1ncc2ccc(OCC(=O)NC[C@H](O)CN3CCc4ccccc4C3)cc21 [Compound 159],1 to 10 µM
0.101 to 1 µM,,O=C(Cc1ccc2c(c1)OCO2)NC[C@H](O)CN1CCc2ccccc2C1 [Compound 174],> 20 µM
< 0.1 µM,< 0.1 µM,CN(c1ccccc1OCC(=O)NCC(O)CN1CCc2ccccc2C1)S(C)(=O)=O (stereo not shown) [Compound 155],1 to 10 µM
0.101 to 1 µM,< 0.1 µM,Cc1cn(C)c2cccc(OCC(=O)NC[C@H](O)CN3CCc4ccccc4C3)c12 [Compound 163],1 to 10 µM
0.101 to 1 µM,< 0.1 µM,Cn1cnc(-c2ccccc2OCC(=O)NCC(O)CN2CCc3ccccc3C2)c1 (stereo not shown) [Compound 153],10 to 50 µM
< 0.1 µM,< 0.1 µM,O=C(COc1cccc2cncnc12)NCC(O)CN1CCc2ccccc2C1 (stereo not shown) [Compound 181],
0.101 to 1 µM,,O=C(CC1Cc2ccccc2C1)NC[C@H](O)CN1CCc2ccccc2C1 [Compound 179],10 to 50 µM
1 to 10 µM,,O=C(COc1cncc(C(=O)N2CCOCC2)c1)NCC(O)CN1CCc2ccccc2C1 (stereo not shown) [Compound 161],> 20 µM
< 0.1 µM,< 0.1 µM,"O=C(CCc1nc2ccccc2[nH]1)NC[C@H](O)CN1CCc2ccccc2C1 [Compound 175, (S)-3-(1H-benzo[d]imidazol-2-yl)-N-(3-(3,4-dihydroisoquinolin-2(1H)-yl)-2-hydroxypropyl)propanamide]",0.101 to 1 µM
0.101 to 1 µM,,O=C(NC[C@H](O)CN1CCc2ccccc2C1)C1COc2ccccc2O1 (stereo partly shown) [Compound 183],
0.101 to 1 µM,,O=C(COc1cncc(CN2CCOCC2)c1)NCC(O)CN1CCc2ccccc2C1 (stereo not shown) [Compound 172],10 to 50 µM
< 0.1 µM,< 0.1 µM,Cc1cn(C)c2cccc(OCC(=O)NC[C@@H](O)CN3CCc4ccccc4C3)c12 [Compound 164],0.101 to 1 µM
1 to 10 µM,,CC(=O)Nc1ccncc1OCC(=O)NCC(O)CN1CCc2ccccc2C1 (stereo not shown) [Compound 162],> 20 µM
< 0.1 µM,< 0.1 µM,Nc1ncnc2c(OCC(=O)NCC(O)CN3CCc4ccccc4C3)cccc12 (stereo not shown) [Compound 168],1 to 10 µM
,< 0.1 µM,CN1CCN(c2cccc(OCC(=O)NC[C@@H](O)CN3CCc4ccccc4C3)c2)CC1 [Compound 190],
0.101 to 1 µM,< 0.1 µM,Cc1nn(C)c2cccc(OCC(=O)NCC(O)CN3CCc4ccccc4C3)c12 (stereo not shown) [Compound 158],1 to 10 µM
< 0.1 µM,< 0.1 µM,CN(C)c1cccc(OCC(=O)NCC(O)CN2CCc3ccccc3C2)c1S(N)(=O)=O (stereo not shown) [Compound 169],1 to 10 µM
,< 0.1 µM,CN(C)CCN(C)S(=O)(=O)c1ccccc1OCC(=O)NC[C@@H](O)CN1CCc2ccccc2C1 [Compound 191],
0.101 to 1 µM,,O=C(NC[C@H](O)CN1CCc2ccccc2C1)C1CNc2ccccc21 (stereo partly shown) [Compound 177],10 to 50 µM
0.101 to 1 µM,< 0.1 µM,CC(NC(=O)COc1ccccc1S(N)(=O)=O)C(O)CN1CCc2ccccc2C1 (stereo not shown) [Compound 170],10 to 50 µM
0.101 to 1 µM,,O=C(CC1CCc2ccccc21)NC[C@H](O)CN1CCc2ccccc2C1 (stereo partly shown) [Compound 178],1 to 10 µM
1 to 10 µM,,Cn1ncc2ccc(OCC(=O)NC[C@@H](O)CN3CCc4ccccc4C3)cc21 [Compound 160],> 20 µM
